Results: patent publication US20090042983A1, “Use of L-carnitine for the treatment of cardiovascular diseases” (Sigma-Tau Industrie Farmaceutiche Riunite S.p.A., priority 2003, published 2009)

Key:
[1] = tested on: perfused heart; settings: cited from earlier work
[2] = tested on: patients with acute myocardial infarction; test: Multicentre double-blind placebo-controlled randomised clinical trial of L-carnitine on mortality (Example 1); format: in vivo, human
Description: A clinical trial was conducted in order to evaluate the effect of the administration of L-carnitine on the incidence of mortality and heart failure in the short and long term in patients with acute myocardial infarction. The acute myocardial infarction has not localized within a specific region of the organ but it could be located anywhere in the heart. The trial design was that of a multicentre, parallel-group, double-blind, placebo-controlled, randomised trial.
A total of 2,296 male and female patients aged below 80 years were recruited. The study compound, L-carnitine, was administered at a dose of 9 g/day i.v. for the first 5 days and 4 g/day by mouth from day 6 to day 180.
Concomitant therapies were given according to the procedures adopted in local clinical practice.
The efficacy endpoints of the trial consisted in the reduction of mortality and heart failure.
• Typical chest pain lasting>30 minutes, not resolved by the oral or intravenous administration of nitrates; • ECG with ST segment deviation≧0.2 mV in D, and aVL and/or in two or more contiguous precordial leads; • Time interval elapsing from onset of symptoms to trial randomisation<12 hours; • Age<80 years; • Written informed consent.
• Pregnancy or breast-feeding; • Haemodynamically significant valvulopathy; • Hypertrophic or dilated cardiomyopathy; • Congenital heart disease; • Clinically severe liver or kidney disease; • Alcohol abuse; • Other diseases associated with a poor life expectancy; • Conditions making poor compliance with treatment and/or periodic visits likely; • Inclusion in another trial.

[3] = tested on: patients affected by anterior acute myocardial infarction; settings: cited from earlier work
[4] = tested on: acute myocardial infarction; settings: 40 mg/kg/day (2.8 g/day); cited from earlier work
[5] = tested on: patients with acute myocardial infarction; settings: 3 grams every 8 hours (9 grams a day) intravenous for 48 hours; symptoms within 8 hours; 351 patients; cited from earlier work
[6] = tested on: cardiac ischaemia; settings: dogs, cardiac ischaemia model; cited from earlier work

Row | Structure (SMILES) | lactate levels [1] | postischemic cardiac contraction amplitude [1] | release of LDH [1] | reserve of high-energy phosphate [1] | coronary flow ([1]; postischemic) | NUMBER OF DEATHS AT: 1 mos ([2]; 9 g/day i.v. first 5 days, 4 g/day by mouth day 6 to 180, at 1 mos) | NUMBER OF DEATHS AT: 2 mos ([2]; 9 g/day i.v. first 5 days, 4 g/day by mouth day 6 to 180, at 2 mos) | NUMBER OF DEATHS AT: 6 mos ([2]; 9 g/day i.v. first 5 days, 4 g/day by mouth day 6 to 180, at 6 mos) | NUMBER OF DEATHS AT: 12 mos ([2]; 9 g/day i.v. first 5 days, 4 g/day by mouth day 6 to 180, at 12 mos) | RR (Relative Risk) of death at 1 mos ([2]; L-carnitine vs placebo, at 1 mos) | RR (Relative Risk) of death at 2 mos ([2]; L-carnitine vs placebo, at 2 mos) | RR (Relative Risk) of death at 6 mos ([2]; L-carnitine vs placebo, at 6 mos) | RR (Relative Risk) of death at 12 mos ([2]; L-carnitine vs placebo, at 12 mos) | reduction in deaths at the other observation times ([2]; vs placebo, 3 and 7 days, 1, 2, 6, 12 mos) | reduction in deaths after 5 days' treatment ([2]; vs placebo, after 5 days' treatment (P<0.05)) | left ventricular dilation in the first year after infarction ([3]; anterior acute myocardial infarction) | deaths during the hospitalisation period ([3]; treated group, L-carnitine within 24 hours from onset of chest pain, 14 in control group, 472 patients in total) | difference between patients treated within 4 hours and more than 4 hours after onset of infarct symptoms [4] | mortality vs control group at 7 days after the start of treatment [5] | cardiac lipid metabolism [6]
1 | C[N+](C)(C)C[C@H](O)CC(=O)[O-].O=C(O)/C=C/C(=O)O [L-carnitine fumarate] | lower lactate levels | greater | reduced release of LDH | higher reserve of high-energy phosphate | greater |  |  |  |  |  |  |  |  |  |  |  |  |  |  | 
2 | C[N+](C)(C)C[C@H](O)CC(=O)[O-] [L-carnitine] |  |  |  |  |  | 45 | 53 | 64 | 67 | 0.78 | 0.81 | 0.86 | 0.89 | significant reductions | statistically significant reduction in deaths | significant attenuation of left ventricular dilation | 11 | no significant difference | no significant difference | active in improving cardiac lipid metabolism
